Data published in patent publication US20120245137A1 (Zalicus Pharmaceuticals Ltd., priority 2009, published 2012).
Read-outs that look alike come from different tables or passages of the source.

Columns and labels:
Type in all cases: cell-based
Human Cav 2.2 channels = Human Cav 2.2 channels (Homo sapiens, UniProt Q00975); test: Fluorescent assay for CaV2.2 channels using potassium depolarization (VIPR/FLIPR); conditions: FLIPR data; for CAv2.2 IC50 Ratio closed/inact.: ratio closed/inactivated IC50
Summary of the method: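 Fluo-4 calcium fluorescence (480/535 nm) was recorded on VIPR or FLIPR after depolarization to 70 mM final potassium. Before this, cells were preincubated 30 min at 25 °C with compound in 4–30 mM potassium, so that state-dependent block could be assessed; the cells were HEK293 coexpressing Cav2.2, α2δ, β and Kir2.3.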

T-type calcium channel [1] = target: T-type calcium channel (Homo sapiens, UniProt O43497); test: T-type channel blocking, FLIPR data (Table 6); conditions: CAv3.1
Source text: (§1) Another method, high-throughput spectrophotometric assay, utilizes loading of the cell lines with a fluorescent dye sensitive to intracellular calcium concentration and subsequent examination of the effects of compounds on the ability of depolarization by potassium chloride or other means to alter intracellular calcium levels.

T-type calcium channel [2] = target: T-type calcium channel (Homo sapiens, UniProt O95180); test: T-type channel blocking, FLIPR data (Table 6); conditions: for CAv3.2 IC50 Ratio closed/inact.: CAv3.2, ratio closed/inactivated IC50
Source text: as §1

CAv1.2 = CAv1.2 (Homo sapiens, UniProt Q13936); test: FLIPR data, CAv1.2 channel blocking (Table 6); conditions: for CAv1.2 IC50 Ratio closed/inact.: ratio closed/inactivated IC50
[3] = closed state, read-out: CAv2.2 IC50 Closed
[4] = inactivated state, read-out: CAv2.2 IC50 Inact.
[5] = CAv3.2, closed state, read-out: CAv3.2 IC50 Closed
[6] = CAv3.2, inactivated state, read-out: CAv3.2 IC50 Inact.
[7] = closed state, read-out: CAv1.2 IC50 Closed
[8] = inactivated state, read-out: CAv1.2 IC50 Inact.

Chain of CAv1.2 (Q13936 whole entry): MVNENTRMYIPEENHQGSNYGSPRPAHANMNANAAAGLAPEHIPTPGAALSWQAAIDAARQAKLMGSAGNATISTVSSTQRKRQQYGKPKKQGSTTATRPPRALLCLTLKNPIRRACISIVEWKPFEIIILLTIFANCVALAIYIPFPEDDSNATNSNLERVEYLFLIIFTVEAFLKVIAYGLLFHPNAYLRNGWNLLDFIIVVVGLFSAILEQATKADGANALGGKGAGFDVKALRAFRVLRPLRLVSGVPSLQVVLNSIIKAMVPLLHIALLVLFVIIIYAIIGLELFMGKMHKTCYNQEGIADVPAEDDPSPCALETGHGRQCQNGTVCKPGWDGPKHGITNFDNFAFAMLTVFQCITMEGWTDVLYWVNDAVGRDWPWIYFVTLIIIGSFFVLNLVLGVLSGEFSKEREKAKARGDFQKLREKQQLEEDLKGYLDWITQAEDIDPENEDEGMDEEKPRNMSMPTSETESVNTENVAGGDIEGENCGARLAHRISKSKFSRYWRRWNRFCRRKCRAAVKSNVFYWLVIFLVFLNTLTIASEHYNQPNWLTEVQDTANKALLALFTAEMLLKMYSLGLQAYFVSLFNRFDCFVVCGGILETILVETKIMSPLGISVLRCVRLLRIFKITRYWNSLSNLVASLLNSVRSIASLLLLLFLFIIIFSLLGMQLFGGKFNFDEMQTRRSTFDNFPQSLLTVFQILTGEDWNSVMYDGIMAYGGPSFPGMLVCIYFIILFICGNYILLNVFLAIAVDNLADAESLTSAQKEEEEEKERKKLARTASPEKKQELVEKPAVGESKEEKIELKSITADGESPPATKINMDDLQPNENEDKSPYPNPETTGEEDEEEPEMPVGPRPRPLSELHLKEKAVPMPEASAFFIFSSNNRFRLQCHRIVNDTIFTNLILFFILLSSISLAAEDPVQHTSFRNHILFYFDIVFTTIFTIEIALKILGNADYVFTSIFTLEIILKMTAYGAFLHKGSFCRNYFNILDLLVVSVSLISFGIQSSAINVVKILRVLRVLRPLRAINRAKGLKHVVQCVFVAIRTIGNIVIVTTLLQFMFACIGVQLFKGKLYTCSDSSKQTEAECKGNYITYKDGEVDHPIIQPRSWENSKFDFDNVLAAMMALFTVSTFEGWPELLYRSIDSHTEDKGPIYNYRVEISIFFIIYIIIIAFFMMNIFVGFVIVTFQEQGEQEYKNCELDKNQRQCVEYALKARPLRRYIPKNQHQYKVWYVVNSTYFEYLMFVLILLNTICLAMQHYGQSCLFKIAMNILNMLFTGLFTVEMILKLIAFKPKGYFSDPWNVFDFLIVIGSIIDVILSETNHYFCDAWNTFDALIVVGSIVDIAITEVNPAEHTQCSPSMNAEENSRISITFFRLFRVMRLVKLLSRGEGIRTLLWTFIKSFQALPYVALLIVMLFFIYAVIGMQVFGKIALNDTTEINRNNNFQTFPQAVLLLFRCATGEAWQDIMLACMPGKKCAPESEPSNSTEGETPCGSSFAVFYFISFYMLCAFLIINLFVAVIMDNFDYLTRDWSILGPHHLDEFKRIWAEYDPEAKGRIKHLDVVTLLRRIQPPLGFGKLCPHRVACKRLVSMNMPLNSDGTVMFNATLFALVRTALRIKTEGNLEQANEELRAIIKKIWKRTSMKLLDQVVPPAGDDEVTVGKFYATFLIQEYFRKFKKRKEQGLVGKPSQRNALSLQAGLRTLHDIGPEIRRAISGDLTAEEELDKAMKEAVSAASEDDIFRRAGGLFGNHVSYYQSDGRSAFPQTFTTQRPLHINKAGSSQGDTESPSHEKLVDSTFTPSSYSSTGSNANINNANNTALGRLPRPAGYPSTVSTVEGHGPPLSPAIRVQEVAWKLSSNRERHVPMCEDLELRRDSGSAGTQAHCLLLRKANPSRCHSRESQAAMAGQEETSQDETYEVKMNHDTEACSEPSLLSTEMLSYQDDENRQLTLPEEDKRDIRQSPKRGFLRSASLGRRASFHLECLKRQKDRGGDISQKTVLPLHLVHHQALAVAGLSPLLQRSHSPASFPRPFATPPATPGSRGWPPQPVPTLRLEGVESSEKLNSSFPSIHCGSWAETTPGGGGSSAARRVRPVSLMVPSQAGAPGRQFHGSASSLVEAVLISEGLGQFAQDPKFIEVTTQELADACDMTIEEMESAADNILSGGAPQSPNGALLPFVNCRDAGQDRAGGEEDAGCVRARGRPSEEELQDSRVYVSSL
Chain of CAv1.2 (P54289 25-1103 partner): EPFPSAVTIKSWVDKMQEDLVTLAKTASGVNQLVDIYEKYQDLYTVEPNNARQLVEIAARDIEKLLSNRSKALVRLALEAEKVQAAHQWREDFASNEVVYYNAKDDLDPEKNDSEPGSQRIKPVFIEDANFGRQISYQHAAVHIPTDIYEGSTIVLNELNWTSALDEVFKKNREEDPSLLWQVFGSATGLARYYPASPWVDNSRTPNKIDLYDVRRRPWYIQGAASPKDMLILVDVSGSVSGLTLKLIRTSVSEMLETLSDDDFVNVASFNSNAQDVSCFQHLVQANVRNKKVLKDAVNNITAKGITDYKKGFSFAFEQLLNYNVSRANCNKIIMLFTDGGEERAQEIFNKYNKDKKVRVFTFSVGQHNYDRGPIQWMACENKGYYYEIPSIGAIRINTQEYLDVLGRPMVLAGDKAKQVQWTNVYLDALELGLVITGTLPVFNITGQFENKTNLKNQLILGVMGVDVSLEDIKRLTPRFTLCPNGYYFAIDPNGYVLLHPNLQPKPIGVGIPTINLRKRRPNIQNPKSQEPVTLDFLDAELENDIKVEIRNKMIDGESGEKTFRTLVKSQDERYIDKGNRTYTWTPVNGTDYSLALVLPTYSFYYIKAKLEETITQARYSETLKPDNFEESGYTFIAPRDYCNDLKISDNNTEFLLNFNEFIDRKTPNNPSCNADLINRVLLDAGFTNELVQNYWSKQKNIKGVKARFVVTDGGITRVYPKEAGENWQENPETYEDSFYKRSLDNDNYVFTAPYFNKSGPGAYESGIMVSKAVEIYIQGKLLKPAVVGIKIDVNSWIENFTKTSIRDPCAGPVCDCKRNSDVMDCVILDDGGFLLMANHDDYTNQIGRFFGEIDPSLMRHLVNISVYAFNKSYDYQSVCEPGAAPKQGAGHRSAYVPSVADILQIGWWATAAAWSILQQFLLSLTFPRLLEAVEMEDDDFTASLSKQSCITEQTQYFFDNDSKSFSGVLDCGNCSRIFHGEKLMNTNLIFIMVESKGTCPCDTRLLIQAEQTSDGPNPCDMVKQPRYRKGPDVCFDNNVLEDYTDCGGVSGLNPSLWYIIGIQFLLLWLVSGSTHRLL
Chain of CAv1.2 (Q08289 whole entry partner): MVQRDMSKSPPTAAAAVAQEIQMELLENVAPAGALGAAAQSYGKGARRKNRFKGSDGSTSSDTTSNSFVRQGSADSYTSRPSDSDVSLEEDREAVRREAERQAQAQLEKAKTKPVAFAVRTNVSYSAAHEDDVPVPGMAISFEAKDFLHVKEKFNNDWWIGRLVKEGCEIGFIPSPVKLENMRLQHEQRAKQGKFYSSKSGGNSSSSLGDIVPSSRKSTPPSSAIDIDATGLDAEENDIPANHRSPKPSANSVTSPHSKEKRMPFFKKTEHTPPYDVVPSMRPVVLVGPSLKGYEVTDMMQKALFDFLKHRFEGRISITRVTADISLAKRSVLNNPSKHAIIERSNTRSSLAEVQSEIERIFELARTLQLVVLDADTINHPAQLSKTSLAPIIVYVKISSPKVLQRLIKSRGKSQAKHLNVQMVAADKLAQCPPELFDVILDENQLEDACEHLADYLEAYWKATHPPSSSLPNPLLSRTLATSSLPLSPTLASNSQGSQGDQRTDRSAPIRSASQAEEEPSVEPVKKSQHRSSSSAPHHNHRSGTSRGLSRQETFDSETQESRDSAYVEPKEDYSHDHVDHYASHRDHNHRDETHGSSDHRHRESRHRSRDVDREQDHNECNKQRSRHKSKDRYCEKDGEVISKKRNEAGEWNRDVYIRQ

| IC50 (Human Cav 2.2 channels; [3]) [µM] | IC50 (Human Cav 2.2 channels; [4]) [µM] | CAv2.2 IC50 Ratio closed/inact. (Human Cav 2.2 channels) | IC50 (T-type calcium channel [1]) [µM] | IC50 (T-type calcium channel [2]; [5]) [µM] | IC50 (T-type calcium channel [2]; [6]) [µM] | CAv3.2 IC50 Ratio closed/inact. (T-type calcium channel [2]) | Compound | IC50 (CAv1.2; [7]) [µM] | IC50 (CAv1.2; [8]) [µM] | CAv1.2 IC50 Ratio closed/inact. (CAv1.2) |
| --- | --- | --- | --- | --- | --- | --- | --- | --- | --- | --- |
| 6.16 | 0.87 | 7.1 | 2.28 | 2.58 | 2.55 | 1 | CC(C)([C@H]1C[C@@H](NC(=O)c2cc(C(F)(F)F)n[nH]2)C1)S(=O)(=O)c1cccc(OC(F)(F)F)c1 [Compound 639] | 9.31 | 3.4 | 2.7 |
| 10 | 9.14 | 1.1 | ≥ 10 | – | 10 | – | Cc1nc(S(=O)(=O)N[C@H]2C[C@H](C(C)(C)S(=O)(=O)c3cc(F)cc(C(F)(F)F)c3)C2)cn1C [Compound 611] | ≥ 10 | ≥ 10 | – |
| 5.47 | 0.28 | 19.5 | 9.28 | 5.73 | 6.36 | 0.9 | CC(C)([C@H]1C[C@H](NC(=O)c2cncc(C(F)(F)F)c2)C1)S(=O)(=O)c1cccc(C(F)(F)F)c1 [Compound 671] | ≥ 10 | 7.82 | 1.3 |
| 3.14 | 0.49 | 6.4 | 7.86 | 6.22 | 5.1 | 1.2 | CC(C)(C[C@H]1C[C@H](NC(=O)c2ccc(C(F)(F)F)nc2)C1)S(=O)(=O)c1cccc(C(F)(F)F)c1 [Compound 723] | ≥ 10 | 4.89 | 2 |
| 8.63 | 0.49 | 17.6 | ≥ 10 | 7.76 | 6.23 | 1.2 | CC(C)([C@H]1C[C@H](NC(=O)c2ccc(C(F)(F)F)nc2)C1)S(=O)(=O)c1cccc(C(F)(F)F)c1 [Compound 675] | ≥ 10 | 5.99 | 1.7 |
| 2.83 | 0.34 | 8.3 | 6.85 | 4.3 | 1.37 | 3.1 | CC(C)([C@H]1C[C@@H](NC(=O)c2ccc(F)c(Cl)c2)C1)S(=O)(=O)c1cc(F)cc(C(F)(F)F)c1 [Compound 590] | 5.33 | 1.7 | 3.1 |
| 1.37 | 0.25 | 5.5 | ≥ 10 | ≥ 10 | 7.17 | 1.4 | CC(C)(C1CC(CNC(=O)c2ccnc(C(F)(F)F)n2)C1)S(=O)(=O)c1cccc(C(F)(F)F)c1 (centres unmarked) [Compound 615] | ≥ 10 | 5.61 | 1.8 |
| 2.7 | – | 5.7 | 3.02 | 3.02 | – | 1.1 | O=C(NC[C@H]1C[C@H](S(=O)(=O)c2cccc(OC(F)(F)F)c2)C1)c1ccc(OCC(F)(F)F)nc1 [Compound 698] | 5.6 | 2.48 | 2.3 |
| 5.12 | 0.78 | 6.6 | 9.87 | 8.58 | 5.58 | 1.5 | O=C(NC[C@H]1C[C@H](S(=O)(=O)c2cccc(OC(F)(F)F)c2)C1)c1ccc(C(F)(F)F)nc1 [Compound 695] | ≥ 10 | ≥ 10 | – |
| 6.9 | 0.15 | 46 | 8.24 | 8.13 | 6.78 | 1.2 | CC(C)S(=O)(=O)c1cc(C(F)(F)F)cnc1C(=O)N[C@H]1C[C@@H](CC(C)(C)S(=O)(=O)c2cccc(C(F)(F)F)c2)C1 [Compound 729] | ≥ 10 | 9.3 | 1.1 |
| 10 | 0.66 | 15.2 | ≥ 10 | ≥ 10 | 10 | 1 | CC(C)([C@H]1C[C@@H](NC(=O)c2cnc(C(F)(F)F)nc2)C1)S(=O)(=O)c1cccc(C(F)(F)F)c1 [Compound 579] | ≥ 10 | 9.95 | 1 |
| 8.03 | 0.65 | 12.4 | 4.65 | 4.67 | – | – | CC(C)([C@H]1C[C@@H](CNC(=O)c2ncc(C(F)(F)F)cn2)C1)S(=O)(=O)c1cccc(C(F)(F)F)c1 [Compound 684] | ≥ 10 | 5.35 | 1.9 |
| 9.89 | 0.16 | 61.8 | 4.82 | 5.93 | – | – | CC(C)S(=O)(=O)c1cc(C(F)(F)F)cnc1C(=O)NC[C@H]1C[C@@H](C(C)(C)S(=O)(=O)c2cccc(C(F)(F)F)c2)C1 [Compound 681] | ≥ 10 | 2.62 | 3.8 |
| 2.49 | 0.4 | 6.2 | 1.26 | 0.7 | 0.92 | 0.8 | CC(C)([C@H]1C[C@@H](NC(=O)c2ccc(Cl)c(F)c2)C1)S(=O)(=O)c1cccc(OC(F)(F)F)c1 [Compound 640] | 4.9 | 1.43 | 3.4 |
| 4.81 | 0.61 | 7.9 | ≥ 10 | ≥ 10 | 6.4 | 1.6 | CC(C)(C1CC(CNC(=O)c2cnc(C(F)(F)F)nc2)C1)S(=O)(=O)c1cccc(C(F)(F)F)c1 (centres unmarked) [Compound 616] | ≥ 10 | 2.81 | 3.6 |
| 6.08 | 0.75 | 8.1 | 6.36 | ≥ 10 | 5.38 | 1.9 | CC(C)([C@H]1C[C@@H](NS(=O)(=O)c2ccc(C(F)(F)F)nc2)C1)S(=O)(=O)c1cc(F)cc(C(F)(F)F)c1 [Compound 602] | 9.77 | 3.94 | 2.5 |
| 10 | 0.26 | 38.5 | ≥ 10 | ≥ 10 | 10 | 1 | CC(C)([C@H]1C[C@@H](NC(=O)c2ccc(Cl)cc2S(C)(=O)=O)C1)S(=O)(=O)c1cccc(C(F)(F)F)c1 [Compound 580] | ≥ 10 | ≥ 10 | – |
| 3.58 | 1.13 | 3.2 | 5.3 | ≥ 10 | 1.43 | 7 | CC(C)([C@H]1C[C@H](NS(=O)(=O)c2ccc(OC(F)(F)F)cc2)C1)S(=O)(=O)c1cc(F)cc(C(F)(F)F)c1 [Compound 610] | 8.93 | 2.93 | 3 |
| 2.86 | 0.22 | 13 | 2.79 | 1.78 | 1.82 | 1 | CC(C)([C@H]1C[C@H](NC(=O)c2ccc(C(F)(F)F)cc2)C1)S(=O)(=O)c1cccc(C(F)(F)F)c1 [Compound 677] | 6.35 | 2.23 | 2.8 |
| 6.14 | 1.03 | 6 | 5.59 | ≥ 10 | 4.4 | 2.3 | CC(C)([C@H]1C[C@@H](NS(=O)(=O)c2ccc(F)c(Cl)c2)C1)S(=O)(=O)c1cc(F)cc(C(F)(F)F)c1 [Compound 599] | 8.85 | 3.05 | 2.9 |
| 8.45 | 1.1 | 7.7 | 3.77 | 3.85 | 2.58 | 1.5 | CC(C)([C@H]1C[C@@H](NS(=O)(=O)c2ccc(Cl)c(F)c2)C1)S(=O)(=O)c1cccc(C(F)(F)F)c1 [Compound 626] | 9.15 | 5.4 | 1.7 |
| 3.09 | 0.63 | 4.9 | 4.07 | 9.61 | 2.81 | 3.4 | CC(C)([C@H]1C[C@@H](NC(=O)c2ccnc(C(F)(F)F)n2)C1)S(=O)(=O)c1cccc(OC(F)(F)F)c1 [Compound 642] | ≥ 10 | 8.43 | 1.2 |
